Measurements from PubChem BioAssay (NCI).
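In this assay, cells in 96-well plates receive the compound at five concentrations for 48 hours. Endpoints are linearly interpolated between the surrounding concentrations. Definition used: TGI = concentration required for complete inhibition of growth.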

What was measured:
Assay in all cases: NCI anticancer screen, dose series, 48 h
A549 NSCLC = tested on: A549 NSCLC
BT-549 breast = tested on: BT-549 breast
HCC-2998 colon = tested on: HCC-2998 colon
MDA-N = tested on: MDA-N
OVCAR-3 ovarian = tested on: OVCAR-3 ovarian
SF-268 CNS = tested on: SF-268 CNS
SN12C renal = tested on: SN12C renal
UACC-62 melanoma = tested on: UACC-62 melanoma

| Structure (SMILES) | TGI (A549 NSCLC) [µM] | TGI (BT-549 breast) [µM] | TGI (HCC-2998 colon) [µM] | TGI (MDA-N) [µM] | TGI (OVCAR-3 ovarian) [µM] | TGI (SF-268 CNS) [µM] | TGI (SN12C renal) [µM] | TGI (UACC-62 melanoma) [µM] |
| --- | --- | --- | --- | --- | --- | --- | --- | --- |
| COc1ccc(N=C(SSC(=Nc2ccc(OC)cc2)c2ccc([N+](=O)[O-])o2)c2ccc([N+](=O)[O-])o2)cc1 | > 100 | 3.22 | 3.26 | 12.7 | 2.6 | 5.4 | 4.87 | 3.16 |
| CCCCSC1=N/C(=C\c2ccccc2O)C(Cl)=N1 | > 100 | > 100 | > 100 | > 100 | > 100 | > 100 | > 100 | > 100 |
| COc1ccc2c(C=O)c3n(c(=O)c2c1OC)CCc1cc2c(cc1-3)OCO2 | > 100 | > 100 | 94.1 | > 100 | > 100 | > 100 | > 100 | > 100 |
| CCOC(=O)c1ccc(-c2cccs2)[nH]1 | > 100 | > 100 | > 100 | > 100 | > 100 | > 100 | > 100 | > 100 |
| COc1ccc(OC)c2c(Nc3ccc(S(=O)(=O)O)c4cc(S(=O)(=O)O)cc(S(=O)(=O)O)c34)cc(C)nc12 | > 100 | > 100 | > 100 | > 100 | > 100 | > 100 | > 100 | > 100 |
| Nn1c(=S)[nH]nc(/C=C/c2c(O)ccc3ccccc23)c1=O | 71.2 | 31.3 | 54.5 | > 100 | 22.1 | 38.6 | – | 26.2 |
| CC1=C(C(=O)OC(C)(C)C)C(c2ccc([N+](=O)[O-])cc2)C(C(=O)OC(C)(C)C)=C(C)N1 | 52.3 | 44.1 | 27.2 | 48.6 | 36.7 | 56.4 | 35.4 | 34.8 |
| CCOC(=O)c1c(SCCN(CC)CC)n(-c2ccccc2)c(=S)n(-c2ccccc2)c1=O | 9.42 | 18.6 | 3.46 | 7 | 3.36 | 9.9 | 3.4 | 9.1 |
| CCCCN1/C(=N/Nc2n[nH]c(=O)c3ccccc23)SCC1c1ccc(Cl)cc1 (configuration not stated) | > 100 | – | – | – | 37.6 | 43.9 | > 100 | 20.7 |
| CO/C(N)=C(\C#N)N=Cc1cccs1 | > 100 | > 100 | > 100 | 90.1 | > 100 | > 100 | > 100 | > 100 |
| CCN(CCCl)c1ccc(NC(=O)c2cc(C(=O)NCCN(C)C)cc(C(=O)Nc3ccc(N(CC)CCCl)cc3)c2)cc1 | 25.7 | – | 35 | 29.6 | – | 61.2 | 21 | 27.5 |
| Clc1cc2ncn(C3CCCO3)c2cc1Cl (configuration not stated) | > 100 | 86.4 | > 100 | > 100 | > 100 | > 100 | > 100 | > 100 |
| N/N=C(\N)SCc1ccc(N=C=S)cc1 | > 100 | – | > 100 | > 100 | – | > 100 | > 100 | > 100 |
| O=CC12CCCN1CCC2 | > 100 | > 100 | > 100 | > 100 | > 100 | – | > 100 | > 100 |
| CCOP(=O)(OCC)/C(C#N)=C(\C)c1ccco1 | > 10 | > 10 | > 10 | > 10 | > 10 | > 10 | > 10 | > 10 |
| CCc1nc2cc(F)ccc2[nH]c1=O | > 100 | > 100 | > 100 | > 100 | > 100 | > 100 | > 100 | > 100 |
| FC(F)(Sc1nc2ccccc2[nH]1)c1nc2ccccc2o1 | > 100 | > 100 | > 100 | > 100 | > 100 | > 100 | > 100 | > 100 |
| CCN(CC)CCCNc1nnc(C)c2[nH]c3ccccc3c12 | 53 | 68 | 22.2 | 29.2 | 37.7 | 34.7 | 43 | 27.9 |
| CC(=O)OC1C(C)OC(OC2C[C@](O)(C(C)=O)Cc3c(O)c4c(c(O)c32)C(=O)c2ccccc2C4=O)C(F)C1OC(C)=O (some centres not stated) | 2.17 | 33.2 | 16.6 | > 100 | 9.9 | 24.6 | 7.76 | 2.81 |
| NNC(=O)COc1nc(-c2cccs2)nc2ccc(I)cc12 | 43.2 | 38.9 | 63.9 | > 100 | 40.7 | 70.5 | 92.2 | 45.1 |
| Cc1ccc(C(=O)C2CC3(CCC2(O)c2ccc(C)cc2)CC(=O)Nc2ccccc2C3=O)cc1 (configuration not stated) | > 100 | > 100 | > 100 | > 100 | > 100 | > 100 | > 100 | > 100 |
| N#Cc1c(N)n(-c2nc3ccccc3s2)c(=O)c2cc([N+](=O)[O-])ccc12 | > 56.8 | > 62.7 | 41.2 | > 82.7 | 51.9 | > 49.6 | > 100 | 66.8 |
| O=C(C[N+]1(c2ccccc2)CCOCC1)c1ccccc1 | > 100 | > 100 | > 100 | > 100 | > 100 | > 100 | > 100 | > 100 |
| CC(=O)Oc1cc(OC(C)=O)c2c(c1C)CC[C@@H]1[C@@H]2CC[C@]2(C)[C@@H](OC(C)=O)CC[C@@H]12 | 34.7 | 34.1 | 36.6 | 32.9 | 31.7 | 39.3 | 33.7 | 34.7 |
| CCCCCCCCCCCCCCCC(=O)OCC(COP(=O)(O)OCCNC(=O)CCSSc1ccccn1)OC(=O)CCCCCCCCCCCCCCC (configuration not stated) | > 100 | > 100 | – | > 100 | > 100 | > 100 | > 100 | > 100 |
| Nc1nc2c(ccc3ccccc32)[nH]1 | > 10 | – | > 10 | > 10 | > 10 | > 10 | > 10 | > 10 |
